As usually defined, the IC50 is the concentration at which inhibition is half-maximal.

Series [1] deals with Osteosarcoma cell line 143B. Kind of series: in vitro cell proliferation inhibition (CCK-8). The format is cell-based. The settings on record: 48 h incubation.
Text: (§1) Osteosarcoma cell line 143B, HOS, and U2, liver cancer cell line HepG2, breast cancer cell line MDA-MB-231 and T47D, gastric cancer cell line AGS, BGC-823, and SGC-7901, cervical cancer cells Hela, lung cancer cells A549, intestinal cancer cells Caco2, mouse glioma cells BV-2, human prostate cancer cells PC3, human thyroid cancer cell line BCPAP, human normal liver cell line L02, human normal gastric cell line GES, human umbilical vein epithelial cells HUVEC, and human embryonic lung fibroblasts WI-38 were cultured in a DMEM medium containing 10% fetal bovine serum and 1×HEPES in a humid incubator (37° C., 5% CO2). The cells were passaged with trypsin-EDTA in logarithmic phase. Certain density of cells (AGS, T47D, Caco2, BCPAP, GES, HUVEC 1×10^5 cells per well; HepG2, MDA-MB-231, BGC-823, A549, PC3, L02 8×10^4 cells per well; 143B, HOS, U2, SGC-7901, Hela, BV-2, 5×10^4 cells per well; WI-38, 3×10^5 cells per well) were inoculated in a 96-well plate, and cultured for 24 h before treatment. After replacing a fresh medium, 12.5 mg/L to 400 mg/L of quercetin, quercetin 3-methyl ether, and quercetin 3,3′-dimethyl ether dissolved with DMSO were added into the medium (a final volume ratio was 0.1%, and the DMSO was used as a […]). After incubation for 48 h, a complete medium was replaced with a serum-free medium containing 10% CCK-8 reagent. The absorbance at 450 nm and 620 nm was measured separately after the cells were incubated for 1 h. Each experiment was repeated three times independently.
as §1, with “400 mg/L,” for “400 mg/L”, “of” for “of quercetin, quercetin 3-methyl ether, and”, “DMSO was” for “DMSO were”, “into a” for “into the”

Series [2] has as its system Osteosarcoma cell line HOS. Kind of series: in vitro cell proliferation inhibition (CCK-8). Format: cell-based. The settings on record: 48 h incubation.
Text: as §1
as §1, with “400 mg/L,” for “400 mg/L”, “of” for “of quercetin, quercetin 3-methyl ether, and”, “DMSO was” for “DMSO were”, “into a” for “into the”

Series [3] deals with Osteosarcoma cell line U2. Kind of series: in vitro cell proliferation inhibition (CCK-8). Format: cell-based. The following applies: 48 h incubation.
Text: as §1
as §1, with “400 mg/L,” for “400 mg/L”, “of” for “of quercetin, quercetin 3-methyl ether, and”, “DMSO was” for “DMSO were”, “into a” for “into the”

The subject of series [4] is breast cancer cell line MDA-MB-231. Kind of series: in vitro cell proliferation inhibition (CCK-8). Format: cell-based. The settings on record: 48 h incubation.
Text: as §1
as §1, with “400 mg/L,” for “400 mg/L”, “of” for “of quercetin, quercetin 3-methyl ether, and”, “DMSO was” for “DMSO were”, “into a” for “into the”

The test system of series [5] is breast cancer cell line T47D. Kind of series: in vitro cell proliferation inhibition (CCK-8). The format is cell-based. The following applies: 48 h incubation.
Text: as §1
as §1, with “400 mg/L,” for “400 mg/L”, “of” for “of quercetin, quercetin 3-methyl ether, and”, “DMSO was” for “DMSO were”, “into a” for “into the”

Series [6] deals with cervical cancer cells Hela. Kind of series: in vitro cell proliferation inhibition (CCK-8). The format is cell-based. The settings on record: 48 h incubation.
Text: as §1
as §1, with “400 mg/L,” for “400 mg/L”, “of” for “of quercetin, quercetin 3-methyl ether, and”, “DMSO was” for “DMSO were”, “into a” for “into the”

The test system of series [7] is gastric cancer cell line AGS. Kind of series: in vitro cell proliferation inhibition (CCK-8). The format is cell-based. The following applies: 48 h incubation.
Text: as §1
as §1, with “400 mg/L,” for “400 mg/L”, “of” for “of quercetin, quercetin 3-methyl ether, and”, “DMSO was” for “DMSO were”, “into a” for “into the”

The test system of series [8] is gastric cancer cell line BGC-823. Kind of series: in vitro cell proliferation inhibition (CCK-8). The format is cell-based.
Text: as §1
as §1, with “400 mg/L,” for “400 mg/L”, “of” for “of quercetin, quercetin 3-methyl ether, and”, “DMSO was” for “DMSO were”, “into a” for “into the”

The subject of series [9] is gastric cancer cell line SGC-7901. Briefly: in vitro cell proliferation inhibition (CCK-8). Format: cell-based.
Text: as §1
as §1, with “400 mg/L,” for “400 mg/L”, “of” for “of quercetin, quercetin 3-methyl ether, and”, “DMSO was” for “DMSO were”, “into a” for “into the”

Series [10] has as its system human prostate cancer cells PC3. Kind of series: in vitro cell proliferation inhibition (CCK-8). The settings on record: 48 h incubation. Format: cell-based.
Text: as §1
as §1, with “400 mg/L,” for “400 mg/L”, “of” for “of quercetin, quercetin 3-methyl ether, and”, “DMSO was” for “DMSO were”, “into a” for “into the”

The subject of series [11] is human thyroid cancer cell line BCPAP. Briefly: in vitro cell proliferation inhibition (CCK-8). Format: cell-based. The following applies: 48 h incubation.
Text: as §1
as §1, with “400 mg/L,” for “400 mg/L”, “of” for “of quercetin, quercetin 3-methyl ether, and”, “DMSO was” for “DMSO were”, “into a” for “into the”

For series [12], the system named is intestinal cancer cells Caco2. Kind of series: in vitro cell proliferation inhibition (CCK-8). The format is cell-based.
Text: as §1
as §1, with “400 mg/L,” for “400 mg/L”, “of” for “of quercetin, quercetin 3-methyl ether, and”, “DMSO was” for “DMSO were”, “into a” for “into the”

The test system of series [13] is liver cancer cell line HepG2. Kind of series: in vitro cell proliferation inhibition (CCK-8). The format is cell-based. The settings on record: 48 h incubation.
Text: as §1
as §1, with “400 mg/L,” for “400 mg/L”, “of” for “of quercetin, quercetin 3-methyl ether, and”, “DMSO was” for “DMSO were”, “into a” for “into the”

For another series, the system named is lung cancer cells A549. Kind of series: in vitro cell proliferation inhibition (CCK-8). The format is cell-based. The settings on record: 48 h incubation.
Text: as §1
as §1, with “400 mg/L,” for “400 mg/L”, “of” for “of quercetin, quercetin 3-methyl ether, and”, “DMSO was” for “DMSO were”, “into a” for “into the”

In a further series the test system is mouse glioma cells BV-2. Briefly: in vitro cell proliferation inhibition (CCK-8). The format is cell-based. The following applies: BV2, 48 h incubation.
Text: as §1
as §1, with “400 mg/L,” for “400 mg/L”, “of” for “of quercetin, quercetin 3-methyl ether, and”, “DMSO was” for “DMSO were”, “into a” for “into the”

Series [14] relates to HepG2 transplanted tumors. Kind of series: proliferation of HepG2 transplanted tumors in nude mice in vivo. Set-up: species or system BALB/c nude mice. The settings on record: 10 mg/kg bw·d intraperitoneal; day 12. On the procedure: BALB/c nude mice (5 to 6 weeks old), weighing 19 g to 22 g, were purchased from Shanghai Experimental Animal Center, Chinese Academy of Sciences. HepG2 cells were collected in a serum-free DMEM medium to make a cell suspension, and then the cell suspension was injected into an underarm area of each mouse, approximately 2.0×10^6 cells, one site per mouse. All mice were bred in the Experimental Animal Center of Zhejiang University, under the environment of 23° C. to 25° C., humidity 50% to 60%, and cycle of 12 h light illumination/dark 12 h. After tumor formation, the mice were randomly divided into 3 groups with 7 mice in each group. The model group was given saline by intraperitoneal injection; the positive drug group was given tegafur at 10 mg/kg bw·d by intraperitoneal injection; the treatment group was intraperitoneally injected with the quercetin 3,3′-dimethyl ether at 50 mg/kg bw·d. According to the change of tumor volume, after the tumor formed, intraperitoneal injection was conducted every 1 d to 2 d, the tumor volume was measured, and the body weight of the mice was weighed. When there was a significant difference in tumor volume between different treatment groups, the mice were sacrificed by cervical dislocation, and the tumor tissue was carefully peeled off, weighed, and calculated. The formulas were: tumor formation rate (%)=(number of tumor-forming mice in treatment group/number of tumor-forming mice in inoculation group)×100; tumor inhibition rate (%)=(average tumor weight in control group (g)−average tumor weight in administration group (g))/average tumor weight in control group (g)×100. Serum, liver, spleen, and kidney were collected and weighed.

Converted amounts (≈) assume the structure as drawn. Where two headings read alike, the source gives them in different places. Bounds are passed on as bounds.

Consider `COc1c(-c2ccc(O)c(O)c2)oc2cc(O)cc(O)c2c1=O` [Quercetin 3-methyl ether, quercetin 3-methyl ether], for which the IC50 was determined as 210.34 µg/mL (≈ 665 µM) in series [1]; 130.84 µg/mL (≈ 414 µM) in series [2]; 377.08 µg/mL (≈ 1190 µM) in series [3]; 92.14 µg/mL (≈ 291 µM) in series [4]; 154.72 µg/mL (≈ 489 µM) in series [5]; 82.34 µg/mL (≈ 260 µM) in [6]. The IC50 in [7] turned out to be 117.04 µg/mL (≈ 370 µM); in [8] (BGC823, 48 h incubation) it was 192.55 µg/mL (≈ 609 µM); in series [9] (SGC7901, 48 h incubation) it was 123.94 µg/mL (≈ 392 µM); in [10], 368.40 µg/mL (≈ 1160 µM); in series [11], 157.67 µg/mL (≈ 499 µM); in series [12] (48 h incubation), 215.61 µg/mL (≈ 682 µM). Further, the IC50 in series [13] is 58.45 µg/mL (≈ 185 µM); in the series on lung cancer cells A549, 252.27 µg/mL (≈ 798 µM); with mouse glioma cells BV-2, 288.00 µg/mL (≈ 911 µM).

For the molecule `O=c1[nH]c(=O)n(C2CCCO2)cc1F` (stereo not shown) [tegafur, reference compound], the “mortality of the mice” value in [14] is on record as “all dead”.

Regarding `O=c1c(O)c(-c2ccc(O)c(O)c2)oc2cc(O)cc(O)c12` [Quercetin, quercetin], the IC50 in series [1] (Homo sapiens, read-out: IC50) is more than 400 µg/mL; in series [2] (read-out: IC50) it was more than 400 µg/mL; in [3] (read-out: IC50) it was more than 400 µg/mL; in series [4] (Homo sapiens, read-out: IC50), 331 µg/mL (≈ 1090 µM); in series [5] (Homo sapiens, read-out: IC50), more than 400 µg/mL; in series [6] (Homo sapiens, read-out: IC50), 196 µg/mL (≈ 648 µM). Also, the IC50 is 329 µg/mL (≈ 1090 µM) in series [7] (read-out: IC50); more than 400 µg/mL in [8] (Homo sapiens, BGC-823, BGC823, 48 h incubation, read-out: IC50); more than 400 µg/mL in series [9] (Homo sapiens, SGC-7901, SGC7901, 48 h incubation, read-out: IC50); more than 400 µg/mL in [10] (Homo sapiens, read-out: IC50); 391 µg/mL (≈ 1290 µM) in series [11] (Homo sapiens, read-out: IC50); more than 400 µg/mL in series [12] (Homo sapiens, Caco-2, 48 h incubation, read-out: IC50). Moreover, the half-inhibitory concentration (IC50) is 155 µg/mL (≈ 513 µM) in [13] (Homo sapiens, read-out: IC50); more than 400 µg/mL in the series with lung cancer cells A549 (Homo sapiens, read-out: IC50); more than 400 µg/mL in the series with mouse glioma cells BV-2 (Mus musculus, Glioma cell, read-out: IC50).

The values are drawn from patent US20240173289A1, “USE OF OXYMETHYL-MODIFIED DERIVATIVE OF QUERCETIN IN PREPARATION OF DRUG FOR INHIBITING TUMOR CELL PROLIFERATION” (ZHEJIANG UNIVERSITY, priority 2021, published 2024).
